Measurements: PMC7979765, “trans-Translation inhibitors bind to a novel site on the ribosome and clear Neisseria gonorrhoeae in vivo” (Nature Communications, 2021)
In brackets after ≈: the same amount, converted by molar mass. Like-named read-outs stand apart in the source and are kept apart here.

Columns and labels:
[1] = Liver microsome stability, murine; assay type: in vitro ADME, mouse
Method in brief: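 Compounds incubated with liver microsomes plus NADPH over 30 min; parent remaining quantified by reverse-phase LC/MS. Half-life from linear regression over several time points.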

Neisseria gonorrhoeae = experiment: MIC, microbroth dilution, G77L medium; assay type: cell-based

In the case of `O=C(Nc1nnc(-c2ccc(F)cc2)o1)c1ccc(Cl)cc1` [KKL-35, 4-chloro-N-(5-(4-fluorophenyl)-1,3,4-oxadiazol-2-yl)benzamide], the “liver microsome stability (in words)” value [1] is reported as “rapidly hydrolyzed”, the half-life ([1]; mouse, murine liver microsomes, read-out: MMS / Microsomal Stability (t1/2), murine) is reported as less than 5 min and the “Average MLMS t½” value ([1]; murine liver microsomes, average of replicates) is reported as less than 5 min. For the same molecule, the “MLMS t½” value ([1]; murine liver microsomes, individual replicates) was less than 5 min, the MIC (Neisseria gonorrhoeae; Neisseria gonorrhoeae, ATCC49226, Neisseria gonorrhoeae ATCC 49226, source data, individual replicates, read-out: MIC) was 0.124 µg/mL (≈ 0.39 µM) and the MIC (Neisseria gonorrhoeae; Neisseria gonorrhoeae, ATCC49226, strain ATCC 49226, geomean of replicates, read-out: MIC GEOMEAN) was 0.124 µg/mL (≈ 0.39 µM). For the same molecule, the MIC (Neisseria gonorrhoeae; Neisseria gonorrhoeae, ATCC49226, strain ATCC 49226, replicates 1-3, read-out: MIC) was 0.124 µg/mL (≈ 0.39 µM), the MIC (Neisseria gonorrhoeae; Neisseria gonorrhoeae, ATCC49226, strain ATCC 49226, type strain, read-out: MIC) was 0.12 µg/mL (≈ 0.378 µM) and the MIC (Neisseria gonorrhoeae; Neisseria gonorrhoeae, ATCC49226, strain MMX ATCC 49226, broth dilution by Micromyx, read-out: MIC) was 0.25 µg/mL (≈ 0.787 µM). The MIC (Neisseria gonorrhoeae; Neisseria gonorrhoeae, ATCC49226, strain MMX ATCC 49226, single data point, Micromyx, read-out: MIC) was 0.25 µg/mL (≈ 0.787 µM), the MIC (Neisseria gonorrhoeae; Neisseria gonorrhoeae, ATCC700719, strain ATCC 700719, SPT, read-out: MIC) was 0.25 µg/mL (≈ 0.787 µM) and the MIC (Neisseria gonorrhoeae; Neisseria gonorrhoeae, ATCC700719, strain ATCC 700719, geomean of replicates, read-out: MIC GEOMEAN) was 0.248 µg/mL (≈ 0.781 µM). The MIC (Neisseria gonorrhoeae; Neisseria gonorrhoeae, ATCC700719, strain ATCC 700719, replicates 1-3, read-out: MIC) was 0.248 µg/mL (≈ 0.781 µM), the MIC (Neisseria gonorrhoeae; Neisseria gonorrhoeae, ATCC700825, strain ATCC 700825, STR, read-out: MIC) was 0.06 µg/mL (≈ 0.189 µM) and the MIC (Neisseria gonorrhoeae; Neisseria gonorrhoeae, ATCC700825, strain ATCC 700825, geomean of replicates, read-out: MIC GEOMEAN) was 0.062 µg/mL (≈ 0.195 µM). It also gave an MIC (Neisseria gonorrhoeae; Neisseria gonorrhoeae, ATCC700825, strain ATCC 700825, replicates 1-3, read-out: MIC) of 0.062 µg/mL (≈ 0.195 µM), an MIC (Neisseria gonorrhoeae; Neisseria gonorrhoeae, BAA1846, strain BAA-1846, TET, read-out: MIC) of 0.06 µg/mL (≈ 0.189 µM) and an MIC (Neisseria gonorrhoeae; Neisseria gonorrhoeae, BAA1846, strain BAA-1846, geomean of replicates, read-out: MIC GEOMEAN) of 0.062 µg/mL (≈ 0.195 µM). For the same molecule, the MIC (Neisseria gonorrhoeae; Neisseria gonorrhoeae, BAA1846, strain BAA-1846, replicates 1-3, read-out: MIC) was 0.062 µg/mL (≈ 0.195 µM), the MIC (Neisseria gonorrhoeae; Neisseria gonorrhoeae, strain H041, Fig. 1B, read-out: N. gonorrhoeae H041 MIC) was 0.12 µg/mL (≈ 0.378 µM) and the MIC (Neisseria gonorrhoeae; Neisseria gonorrhoeae, strain HO41, PEN, TET, CFM, CRO, LVX, read-out: MIC) was 0.25 µg/mL (≈ 0.787 µM). It also gave an MIC (Neisseria gonorrhoeae; Neisseria gonorrhoeae, strain HO41, geomean of replicates, read-out: MIC GEOMEAN) of 0.248 µg/mL (≈ 0.781 µM), an MIC (Neisseria gonorrhoeae; Neisseria gonorrhoeae, strain HO41, replicates 1-3, read-out: MIC) of 0.248 µg/mL (≈ 0.781 µM) and an MIC (Neisseria gonorrhoeae; Neisseria gonorrhoeae, strain MMX 6744, broth dilution by Micromyx, read-out: MIC) of 0.13 µg/mL (≈ 0.409 µM). For the same molecule, the MIC (Neisseria gonorrhoeae; Neisseria gonorrhoeae, strain MMX 6744, single data point, Micromyx, read-out: MIC) was 0.13 µg/mL (≈ 0.409 µM), the MIC (Neisseria gonorrhoeae; Neisseria gonorrhoeae, strain MMX 6746, CIP, by Micromyx, read-out: MIC) was 0.13 µg/mL (≈ 0.409 µM) and the MIC (Neisseria gonorrhoeae; Neisseria gonorrhoeae, strain MMX 6746, single data point, Micromyx, read-out: MIC) was 0.13 µg/mL (≈ 0.409 µM). It also gave an MIC (Neisseria gonorrhoeae; Neisseria gonorrhoeae, strain MMX 6752, TET, by Micromyx, read-out: MIC) of 0.25 µg/mL (≈ 0.787 µM), an MIC (Neisseria gonorrhoeae; Neisseria gonorrhoeae, strain MMX 6752, single data point, Micromyx, read-out: MIC) of 0.25 µg/mL (≈ 0.787 µM) and an MIC (Neisseria gonorrhoeae; Neisseria gonorrhoeae, strain MMX 6753, by Micromyx, read-out: MIC) of 0.06 µg/mL (≈ 0.189 µM). The MIC (Neisseria gonorrhoeae; Neisseria gonorrhoeae, strain MMX 6753, single data point, Micromyx, read-out: MIC) was 0.06 µg/mL (≈ 0.189 µM), the MIC (Neisseria gonorrhoeae; Neisseria gonorrhoeae, strain MMX 6757, by Micromyx, read-out: MIC) was 0.06 µg/mL (≈ 0.189 µM) and the MIC (Neisseria gonorrhoeae; Neisseria gonorrhoeae, strain MMX 6757, single data point, Micromyx, read-out: MIC) was 0.06 µg/mL (≈ 0.189 µM). It also gave an MIC (Neisseria gonorrhoeae; Neisseria gonorrhoeae, strain MMX 6758, by Micromyx, read-out: MIC) of 0.13 µg/mL (≈ 0.409 µM), an MIC (Neisseria gonorrhoeae; Neisseria gonorrhoeae, strain MMX 6758, single data point, Micromyx, read-out: MIC) of 0.13 µg/mL (≈ 0.409 µM) and an MIC (Neisseria gonorrhoeae; Neisseria gonorrhoeae, strain MMX 6762, by Micromyx, read-out: MIC) of 0.13 µg/mL (≈ 0.409 µM). It also gave an MIC (Neisseria gonorrhoeae; Neisseria gonorrhoeae, strain MMX 6762, single data point, Micromyx, read-out: MIC) of 0.13 µg/mL (≈ 0.409 µM), an MIC (Neisseria gonorrhoeae; Neisseria gonorrhoeae, strain MMX 6767, by Micromyx, read-out: MIC) of 0.06 µg/mL (≈ 0.189 µM) and an MIC (Neisseria gonorrhoeae; Neisseria gonorrhoeae, strain MMX 6767, single data point, Micromyx, read-out: MIC) of 0.06 µg/mL (≈ 0.189 µM). For the same molecule, the MIC (Neisseria gonorrhoeae; Neisseria gonorrhoeae, strain MMX 6771, TET, by Micromyx, read-out: MIC) was 0.06 µg/mL (≈ 0.189 µM), the MIC (Neisseria gonorrhoeae; Neisseria gonorrhoeae, strain MMX 6771, single data point, Micromyx, read-out: MIC) was 0.06 µg/mL (≈ 0.189 µM) and the MIC (Neisseria gonorrhoeae; Neisseria gonorrhoeae, strain MMX 6793, CIP, by Micromyx, read-out: MIC) was 0.06 µg/mL (≈ 0.189 µM). For the same molecule, the MIC (Neisseria gonorrhoeae; Neisseria gonorrhoeae, strain MMX 6793, single data point, Micromyx, read-out: MIC) was 0.06 µg/mL (≈ 0.189 µM), the MIC (Neisseria gonorrhoeae; Neisseria gonorrhoeae, strain MMX 6797, CIP, TET, by Micromyx, read-out: MIC) was 0.06 µg/mL (≈ 0.189 µM) and the MIC (Neisseria gonorrhoeae; Neisseria gonorrhoeae, strain MMX 6797, single data point, Micromyx, read-out: MIC) was 0.06 µg/mL (≈ 0.189 µM). It also gave an MIC (Neisseria gonorrhoeae; Neisseria gonorrhoeae, strain MMX 6803, CIP, by Micromyx, read-out: MIC) of 0.13 µg/mL (≈ 0.409 µM), an MIC (Neisseria gonorrhoeae; Neisseria gonorrhoeae, strain MMX 6803, single data point, Micromyx, read-out: MIC) of 0.13 µg/mL (≈ 0.409 µM) and an MIC (Neisseria gonorrhoeae; Neisseria gonorrhoeae, strain MMX 6812, CIP, by Micromyx, read-out: MIC) of 0.13 µg/mL (≈ 0.409 µM). For the same molecule, the MIC (Neisseria gonorrhoeae; Neisseria gonorrhoeae, strain MMX 6812, single data point, Micromyx, read-out: MIC) was 0.13 µg/mL (≈ 0.409 µM), the MIC (Neisseria gonorrhoeae; Neisseria gonorrhoeae, strain MMX 6818, CIP, by Micromyx, read-out: MIC) was 0.13 µg/mL (≈ 0.409 µM) and the MIC (Neisseria gonorrhoeae; Neisseria gonorrhoeae, strain MMX 6818, single data point, Micromyx, read-out: MIC) was 0.13 µg/mL (≈ 0.409 µM). It also gave an MIC (Neisseria gonorrhoeae; Neisseria gonorrhoeae, strain MMX 6819, CIP, by Micromyx, read-out: MIC) of 0.13 µg/mL (≈ 0.409 µM), an MIC (Neisseria gonorrhoeae; Neisseria gonorrhoeae, strain MMX 6819, single data point, Micromyx, read-out: MIC) of 0.13 µg/mL (≈ 0.409 µM) and an MIC (Neisseria gonorrhoeae; Neisseria gonorrhoeae, strain MMX 6879, by Micromyx, read-out: MIC) of 0.06 µg/mL (≈ 0.189 µM). The MIC (Neisseria gonorrhoeae; Neisseria gonorrhoeae, strain MMX 6879, single data point, Micromyx, read-out: MIC) was 0.06 µg/mL (≈ 0.189 µM), the MIC (Neisseria gonorrhoeae; Neisseria gonorrhoeae, strain MMX 6921, CIP, by Micromyx, read-out: MIC) was 0.25 µg/mL (≈ 0.787 µM) and the MIC (Neisseria gonorrhoeae; Neisseria gonorrhoeae, strain MMX 6921, single data point, Micromyx, read-out: MIC) was 0.25 µg/mL (≈ 0.787 µM). It also gave an MIC (Neisseria gonorrhoeae; Neisseria gonorrhoeae, strain MMX 6922, CIP, by Micromyx, read-out: MIC) of 0.25 µg/mL (≈ 0.787 µM), an MIC (Neisseria gonorrhoeae; Neisseria gonorrhoeae, strain MMX 6922, single data point, Micromyx, read-out: MIC) of 0.25 µg/mL (≈ 0.787 µM) and an MIC (Neisseria gonorrhoeae; Neisseria gonorrhoeae, strain MMX 6983, CIP, by Micromyx, read-out: MIC) of 0.25 µg/mL (≈ 0.787 µM). The MIC (Neisseria gonorrhoeae; Neisseria gonorrhoeae, strain MMX 6983, single data point, Micromyx, read-out: MIC) was 0.25 µg/mL (≈ 0.787 µM), the MIC (Neisseria gonorrhoeae; Neisseria gonorrhoeae, strain MMX 6989, by Micromyx, read-out: MIC) was 0.13 µg/mL (≈ 0.409 µM) and the MIC (Neisseria gonorrhoeae; Neisseria gonorrhoeae, strain MMX 6989, single data point, Micromyx, read-out: MIC) was 0.13 µg/mL (≈ 0.409 µM). The MIC (Neisseria gonorrhoeae; Neisseria gonorrhoeae, strain MMX 6990, CIP, by Micromyx, read-out: MIC) was 0.06 µg/mL (≈ 0.189 µM), the MIC (Neisseria gonorrhoeae; Neisseria gonorrhoeae, strain MMX 6990, single data point, Micromyx, read-out: MIC) was 0.06 µg/mL (≈ 0.189 µM) and the MIC (Neisseria gonorrhoeae; Neisseria gonorrhoeae, strain MMX 6992, by Micromyx, read-out: MIC) was 0.13 µg/mL (≈ 0.409 µM). It also gave an MIC (Neisseria gonorrhoeae; Neisseria gonorrhoeae, strain MMX 6992, single data point, Micromyx, read-out: MIC) of 0.13 µg/mL (≈ 0.409 µM), an MIC (Neisseria gonorrhoeae; Neisseria gonorrhoeae, strain MMX 6996, by Micromyx, read-out: MIC) of 0.13 µg/mL (≈ 0.409 µM) and an MIC (Neisseria gonorrhoeae; Neisseria gonorrhoeae, strain MMX 6996, single data point, Micromyx, read-out: MIC) of 0.13 µg/mL (≈ 0.409 µM). The MIC (Neisseria gonorrhoeae; Neisseria gonorrhoeae, strain MMX 6998, CIP, by Micromyx, read-out: MIC) was 0.25 µg/mL (≈ 0.787 µM), the MIC (Neisseria gonorrhoeae; Neisseria gonorrhoeae, strain MMX 6998, single data point, Micromyx, read-out: MIC) was 0.25 µg/mL (≈ 0.787 µM) and the MIC (Neisseria gonorrhoeae; Neisseria gonorrhoeae, strain MMX 7002, CIP, by Micromyx, read-out: MIC) was 0.13 µg/mL (≈ 0.409 µM). For the same molecule, the MIC (Neisseria gonorrhoeae; Neisseria gonorrhoeae, strain MMX 7002, single data point, Micromyx, read-out: MIC) was 0.13 µg/mL (≈ 0.409 µM), the MIC (Neisseria gonorrhoeae; Neisseria gonorrhoeae, strain MMX 7005, by Micromyx, read-out: MIC) was 0.03 µg/mL (≈ 0.0944 µM) and the MIC (Neisseria gonorrhoeae; Neisseria gonorrhoeae, strain MMX 7005, single data point, Micromyx, read-out: MIC) was 0.03 µg/mL (≈ 0.0944 µM). For the same molecule, the MIC90 (Neisseria gonorrhoeae; Neisseria gonorrhoeae, Supplementary Table 3, n = 32 (KKL-35), 71 (MBX-4132) strains, read-out: MIC90 (n)) was 0.25 µg/mL (≈ 0.787 µM), the MIC (Neisseria gonorrhoeae; strain ATCC 49226, replicates 1-3) was 0.124 µg/mL (≈ 0.39 µM) and the MIC (Neisseria gonorrhoeae; strain ATCC 700719, replicates 1-3) was 0.248 µg/mL (≈ 0.781 µM). For the same molecule, the MIC (Neisseria gonorrhoeae; strain ATCC 700825, replicates 1-3) was 0.062 µg/mL (≈ 0.195 µM), the MIC (Neisseria gonorrhoeae; strain BAA-1846, replicates 1-3) was 0.062 µg/mL (≈ 0.195 µM) and the MIC (Neisseria gonorrhoeae; strain HO41, replicates 1-3) was 0.248 µg/mL (≈ 0.781 µM).
